Test results published in US10315996B2, “ROR gamma (RORγ) modulators” (LEAD PHARMA HOLDING B.V., priority 2015, dated 2019).

What follows are compounds tested against T1, RORγ (Homo sapiens, UniProt P51449) (assay: RORγ GAL4 reporter gene assay). Details: inhibition of RORγ activity, GAL4-RORγ-LBD luciferase reporter in 293FT cells, overnight incubation; read-out: mean pIC50 (converted).
T1 construct: expressed in transfected cells; host or cells: 293FT cells (Invitrogen), expression vector pFN26A (Promega)
T1 sequence (P51449 269-508 limits assumed): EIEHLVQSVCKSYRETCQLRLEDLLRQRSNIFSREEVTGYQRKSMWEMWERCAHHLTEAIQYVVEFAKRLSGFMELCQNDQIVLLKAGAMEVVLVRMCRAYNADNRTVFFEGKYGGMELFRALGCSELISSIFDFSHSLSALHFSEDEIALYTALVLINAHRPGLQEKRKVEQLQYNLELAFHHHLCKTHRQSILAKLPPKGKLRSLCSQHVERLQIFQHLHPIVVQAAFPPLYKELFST
Type: cell-based
How it was run: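 293FT cells were transiently co-transfected with GAL4-DBD–RORγ-LBD (or GAL4-VP16 control) and a 9×UAS luc2P reporter, then plated at 60,000 cells/well. Compound was added at final 0.2% DMSO for 16-24 h at 37 °C, and inhibition was measured by firefly luciferase luminescence.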

| IC50 [nM] | SMILES |
| --- | --- |
| ≤ 100 | O=C(Cc1ccc(S(=O)(=O)CC2CC2)cc1)Nc1ccc(C(=O)N(c2cccnc2)C2CC2)cc1 [Example 143, N-cyclopropyl-4-[2-(4-cyclopropylmethanesulfonylphenyl)acetamido]-N-(pyridin-3-yl)benzamide] |
| ≤ 10 | CCOC(=O)CN(Cc1ccccc1)C(=O)c1ccc(NC(=O)Cc2ccc(S(=O)(=O)CC3CC3)cc2)cc1 [Example 32, ethyl 2-(N-benzyl-1-{4-[2-(4-cyclopropylmethanesulfonylphenyl)acetamido]phenyl}formamido)acetate] |
| ≤ 10 | CCCN(Cc1ccccc1)C(=O)c1ccc(NC(=O)Cc2ccc(S(=O)(=O)CC3CC3)cc2)cc1 [Example 21, N-benzyl-4-[2-(4-cyclopropylmethanesulfonylphenyl)acetamido]-N-propylbenzamide] |
| ≤ 1000 | CCCN(Cc1ccccc1)C(=O)c1ccc(NC(=O)Cc2ccc(S(=O)(=O)NC3CC3)cc2)cc1 [Example 23, N-benzyl-4-{2-[4-(cyclopropylsulfamoyl)phenyl]acetamido}-N-propylbenzamide] |
| ≤ 1000 | CN(C(=O)c1ccc(NC(=O)Cc2ccc(S(=O)(=O)CC3CC3)cc2)cc1)c1nccs1 [Example 85, 4-[2-(4-cyclopropylmethanesulfonylphenyl)acetamido]-N-methyl-N-(1,3-thiazol-2-yl)benzamide] |
| ≤ 100 | Cc1ccc(N(C(=O)c2ccc(NC(=O)Cc3ccc(S(=O)(=O)CC4CC4)cc3)cc2)C(C)(C)CO)cc1 [Example 153, 4-[2-(4-cyclopropylmethanesulfonylphenyl)acetamido]-N-(1-hydroxy-2-methylpropan-2-yl)-N-(4-methylphenyl)benzamide] |
| ≤ 1000 | CCCNC(=O)c1ccc(NC(=O)Cc2ccc(S(=O)(=O)CC3CC3)cc2)cc1 [Example 1, 4-[2-(4-cyclopropylmethanesulfonylphenyl)acetamido]-N-propylbenzamide] |
| ≤ 1000 | N#CC(NC(=O)c1ccc(NC(=O)Cc2ccc(S(=O)(=O)CC3CC3)cc2)cc1)c1ccccc1 (stereo not drawn) [Example 73, N-[cyano(phenyl)methyl]-4-[2-(4-cyclopropylmethanesulfonylphenyl)acetamido]benzamide] |
| ≤ 10 | CCCN(C(=O)c1ccc(NC(=O)Cc2ccc(S(=O)(=O)CC3CC3)cc2)cc1)c1cc(C)nn1C [Example 86, 4-[2-(4-cyclopropylmethanesulfonylphenyl)acetamido]-N-(1,3-dimethyl-1H-pyrazol-5-yl)-N-propylbenzamide] |
| ≤ 1000 | CCOC(=O)C1CCCN(C(=O)c2ccc(NC(=O)Cc3ccc(S(=O)(=O)CC4CC4)cc3)cc2)C1 (stereo not drawn) [Example 25, ethyl 1-{4-[2-(4-cyclopropylmethanesulfonylphenyl)acetamido]benzoyl}piperidine-3-carboxylate] |
| ≤ 100 | O=C(Cc1ccc(S(=O)(=O)CC2CC2)cc1)Nc1ccc(C(=O)N2CCCC2c2ccccc2)cc1 (stereo not drawn) [Example 35, 2-(4-cyclopropylmethanesulfonylphenyl)-N-[4-(2-phenylpyrrolidine-1-carbonyl)phenyl]acetamide] |
| ≤ 10 | O=C(Cc1ccc(S(=O)(=O)CC2CC2)cc1)Nc1ccc(C(=O)N(CC(F)(F)F)c2ccccc2)c(Cl)c1 [Example 123, 2-chloro-4-[2-(4-cyclopropylmethanesulfonylphenyl)acetamido]-N-phenyl-N-(2,2,2-trifluoroethyl)benzamide] |
| ≤ 1000 | COCCN(C(=O)c1ccc(NC(=O)Cc2ccc(S(=O)(=O)CC3CC3)cc2)cc1)C1CC1 [Example 79, N-cyclopropyl-4-[[2-[4-(cyclopropylmethylsulfonyl)phenyl]acetyl]amino]-N-(2-methoxyethyl)benzamide] |
| ≤ 1000 | O=C(Cc1ccc(S(=O)(=O)CC2CC2)cc1)Nc1ccc(C(=O)N2CCc3ccccc32)cc1 [Example 41, 2-(4-cyclopropylmethanesulfonylphenyl)-N-[4-(2,3-dihydro-1H-indole-1-carbonyl)phenyl]acetamide] |
| ≤ 100 | CCN(C(=O)c1ccc(NC(=O)Cc2ccc(S(=O)(=O)CC3CC3)cc2)cc1Cl)c1cccc(C)c1C [Example 120, 2-chloro-4-[2-(4-cyclopropylmethanesulfonylphenyl)acetamido]-N-(2,3-dimethylphenyl)-N-ethylbenzamide] |
| ≤ 100 | CCN(C(=O)c1ccc(NC(=O)Cc2ccc(S(=O)(=O)CC3CC3)cc2)cc1)c1cccc(C(=O)OC)c1 [Example 30, methyl 3-{N-ethyl-4-[2-(4-cyclopropylmethanesulfonylphenyl)acetamido]benzamido}benzoate] |
| ≤ 10 | CCN(C(=O)c1ccc(NC(=O)Cc2ccc(S(=O)(=O)CC3CC3)cc2)cc1)c1nc(C)c(C)s1 [Example 64, 4-[2-(4-cyclopropylmethanesulfonylphenyl)acetamido]-N-(4-methyl-5-methyl-1,3-thiazol-2-yl)-N-ethylbenzamide] |

| IC50 [nM] | SMILES |
| --- | --- |
| ≤ 100 | Cc1ccc(N(C(=O)c2ccc(NC(=O)Cc3ccc(S(=O)(=O)CC4CC4)nc3)cc2)C(C)(C)CO)cc1 [Example 161, 4-[2-(6-cyclopropylmethanesulfonylpyridin-3-yl)acetamido]-N-(1-hydroxy-2-methylpropan-2-yl)-N-(4-methylphenyl)benzamide] |
| ≤ 100 | CCN(C(=O)c1ccc(NC(=O)Cc2ccc(S(=O)(=O)CC3CC3)cc2)nc1)c1ccccc1 [Example 51, 6-[2-(4-cyclopropylmethanesulfonylphenyl)acetamido]-N-ethyl-N-phenylpyridine-3-carboxamide] |
| ≤ 100 | C=CCN(CC=C)C(=O)c1ccc(NC(=O)Cc2ccc(S(=O)(=O)CC3CC3)cc2)cc1 [Example 61, 4-[2-(4-cyclopropylmethanesulfonylphenyl)acetamido]-N,N-bis(prop-2-en-1-yl)benzamide] |
| ≤ 1000 | O=C(Cc1ccc(S(=O)(=O)CC2CC2)cc1)Nc1ccc(C(=O)N[C@H](c2ccc(Cl)cc2)C(F)(F)F)cc1 [Example 76, N-[(1R)-1-(4-chlorophenyl)-2,2,2-trifluoroethyl]-4-[2-(4-cyclopropylmethanesulfonylphenyl)acetamido]benzamide] |
| ≤ 10 | CCCN(C(=O)c1ccc(NC(=O)Cc2ccc(S(=O)(=O)NC3CC3)cc2)cc1)c1cc(C)nn1C [Example 92, 4-{2-[4-(cyclopropylsuIfamoyl)phenyl]acetamido}-N-(1,3-dimethyl-1H-pyrazol-5-yl)-N-propylbenzamide] |
| ≤ 100 | CCN(Cc1ccccc1)C(=O)c1ccc(NC(=O)Cc2ccc(S(=O)(=O)CC3CC3)cc2)cc1 [Example 42, N-benzyl-4-[2-(4-cyclopropylmethanesulfonylphenyl)acetamido]-N-ethylbenzamide] |
| ≤ 10 | O=C(Cc1ccc(S(=O)(=O)CC2CC2)cc1)Nc1ccc(C(=O)N2CCCCC2c2ccccc2)cc1 (stereo not drawn) [Example 49, 2-(4-cyclopropylmethanesulfonylphenyl)-N-[4-(2-phenylpiperidine-1-carbonyl)phenyl]acetamide] |
| ≤ 10 | CC(C)(C)N(C(=O)c1ccc(NC(=O)Cc2ccc(S(=O)(=O)CC3CC3)cc2)cc1)c1ccccc1 [Example 130, N-tert-butyl-4-[2-(4-cyclopropylmethanesulfonylphenyl)acetamido]-N-phenylbenzamide] |
| ≤ 100 | CC(C)(C1CCCO1)N(C(=O)c1ccc(NC(=O)Cc2ccc(S(=O)(=O)CC3CC3)nc2)cc1)c1ccccc1 (stereo not drawn) [Example 160, 4-[2-(6-cyclopropylmethanesulfonylpyridin-3-yl)acetamido]-N-[2-(oxolan-2-yl)propan-2-yl]-N-phenylbenzamide] |
| ≤ 1000 | CCN(C(=O)c1ccc(NC(=O)Cc2ccc(S(=O)(=O)NC3CC3)cc2)cc1F)c1ccccc1 [Example 111, 4-{2-[4-(cyclopropylsulfamoyl)phenyl]acetamido}-N-ethyl-2-fluoro-N-phenylbenzamide] |
| ≤ 100 | Cc1ccccc1N(C)C(=O)c1ccc(NC(=O)Cc2ccc(S(=O)(=O)CC3CC3)cc2)cc1F [Example 116, 4-[2-(4-cyclopropylmethanesulfonylphenyl)acetamido]-2-fluoro-N-methyl-N-(2-methylphenyl)benzamide] |
| ≤ 10 | O=C(Cc1ccc(S(=O)(=O)CC2CC2)cc1)Nc1ccc(C(=O)N2CCCc3ccccc32)cc1 [Example 40, 2-(4-cyclopropylmethanesulfonylphenyl)-N-[4-(1,2,3,4-tetrahydroquinoline-1-carbonyl)phenyl]acetamide] |
| ≤ 10 | CCN(C(=O)c1ccc(NC(=O)Cc2ccc(S(=O)(=O)CC3CC3)cc2)cc1C)c1ccccc1Cl [Example 166, N-(2-chlorophenyl)-4-[2-(4-cyclopropylmethanesulfonylphenyl)acetamido]-N-ethyl-2-methylbenzamide] |
| ≤ 100 | O=C(Cc1ccc(S(=O)(=O)CC2CC2)cc1)Nc1ccc(C(=O)N2CCc3ccccc3C2)cc1 [Example 55, 2-(4-cyclopropylmethanesulfonylphenyl)-N-[4-(1,2,3,4-tetrahydroisoquinoline-2-carbonyl)phenyl]acetamide] |
| ≤ 100 | CCN(C(=O)c1ccc(NC(=O)Cc2ccc(S(=O)(=O)CC3CC3)cc2)cc1)c1nccs1 [Example 84, 4-[2-(4-cyclopropylmethanesulfonylphenyl)acetamido]-N-ethyl-N-(1,3-thiazol-2-yl)benzamide] |
| ≤ 10 | CN(C(=O)c1ccc(NC(=O)Cc2ccc(S(=O)(=O)CC3CC3)cc2)cc1F)c1ccccc1F [Example 126, 4-[2-(4-cyclopropylmethanesulfonylphenyl)acetamido]-2-fluoro-N-(2-fluorophenyl)-N-methylbenzamide] |
